# Measurements published in patent US11219212B2, “Herbicidal composition comprising cinmethylin and imazamox” (BASF Agro B.V., priority 2015, dated 2022).
# Columns and labels:
# Type in all cases: in vivo
# Polygonum convolvulus [1] = test: Greenhouse postemergence herbicidal activity; details: POLCO
# Protocol: (§1) The test plants have been seeded, separately for each species, in plastic containers in sandy loamy soil containing 5% of organic matter.
# (§2) For the post emergence treatment, the plants were first grown to the 2 leaf station (GS 12). Here, the herbicidal compositions were suspended or emulsified in water as distribution medium and sprayed using finely distributing nozzles.
# (§3) The plants have been cultivated due to their individual requirements at 10-25° C. and 20-35° C. The plants were irrigated due to their necessity.
# (§4) The racemic mixture (±)-2-exo-(2-M ethylbenzyloxy)-1-methyl-4-isopropyl-7-oxabicyclo[2.2.1]heptane was used as herbicide A and formulated as emulsifiable concentrates with an active ingredient concentration of 50 g/l, 100 g/I or 750 g/I respectively.
# (§5) Imazamox (herbicide B.1) was used as a water dispersible granule (70% WG).
# (§6) In the following experiments, the herbicidal activity for the individual herbicidal compositions (solo and mixture applications) was assessed 20 days after treatment (DAT).
# (§7) The evaluation for the damage on undesired weeds caused by the chemical compositions was carried out using a scale from 0 to 100%, compared to the untreated control plants. Here, 0 means no damage and 100 means complete destruction of the plants.
# (§8) E=X+Y−(X·Y/100) where X=effect in percent using herbicide A at an application rate a; • Y=effect in percent using herbicide B at application rate b; • E=expected effect (in %) of herbicide A+herbicide B at application rates a+b.
# Sorghum halepense [2] = test: Greenhouse postemergence herbicidal activity; details: SORHA, 20 DAT
# Protocol: as §1, §2, §3, §4, §5, §6, §7, §8
# Setaria viridis [3] = test: Greenhouse postemergence herbicidal activity; details: SETVI
# Protocol: as §1, §2, §3, §4, §5, §6, §7, §8
# Chenopodium album [4] = test: Greenhouse postemergence herbicidal activity; details: CHEAL
# Protocol: as §1, §2, §3, §4, §5, §6, §7, §8
# Anthemis arvensis [5] = test: Greenhouse postemergence herbicidal activity; details: ANTAR, 20 DAT
# Protocol: as §1, §2, §3, §4, §5, §6, §7, §8
# Avena fatua [6] = test: Greenhouse postemergence herbicidal activity; details: AVEFA, 20 DAT
# Protocol: as §1, §2, §3, §4, §5, §6, §7, §8
# Polygonum convolvulus [7] = test: Greenhouse preemergence herbicidal activity; details: POLCO, 20 DAT
# Protocol: as §1
# (§9) The containers were irrigated gently to promote germination and growth and subsequently covered with transparent plastic hoods until the plants had rooted.
# as §3, §4, §5, §6, §7, §8
# Stellaria media = test: Greenhouse preemergence herbicidal activity; details: STEME
# Protocol: as §1, §9, §3, §4, §5, §6, §7, §8
# Amaranthus retroflexus = test: Greenhouse preemergence herbicidal activity; details: AMARE
# Protocol: as §1, §9, §3, §4, §5, §6, §7, §8
# Sorghum halepense [8] = test: Greenhouse preemergence herbicidal activity; details: SORHA, 20 DAT
# Protocol: as §1, §9, §3, §4, §5, §6, §7, §8
# Setaria viridis [9] = test: Greenhouse preemergence herbicidal activity; details: SETVI
# Protocol: as §1, §9, §3, §4, §5, §6, §7, §8
# Chenopodium album [10] = test: Greenhouse preemergence herbicidal activity; details: CHEAL, 20 DAT
# Protocol: as §1, §9, §3, §4, §5, §6, §7, §8
# Echinochloa crus-galli = test: Greenhouse preemergence herbicidal activity; details: ECHCG, 20 DAT
# Protocol: as §1, §9, §3, §4, §5, §6, §7, §8
# Anthemis arvensis [11] = test: Greenhouse preemergence herbicidal activity; details: ANTAR
# Protocol: as §1, §9, §3, §4, §5, §6, §7, §8
# Galium aparine = test: Greenhouse preemergence herbicidal activity; details: GALAP, 20 DAT
# Protocol: as §1, §9, §3, §4, §5, §6, §7, §8
# Abutilon theophrasti = test: Greenhouse preemergence herbicidal activity; details: ABUTH, 20 DAT
# Protocol: as §1, §9, §3, §4, §5, §6, §7, §8
# Geranium dissectum = test: Greenhouse preemergence herbicidal activity; details: GERDI, 20 DAT
# Protocol: as §1, §9, §3, §4, §5, §6, §7, §8
# Avena fatua [12] = test: Greenhouse preemergence herbicidal activity; details: AVEFA
# Protocol: as §1, §9, §3, §4, §5, §6, §7, §8
# Lolium multiflorum = test: Greenhouse preemergence herbicidal activity; details: LOLMU
# Protocol: as §1, §9, §3, §4, §5, §6, §7, §8
# [13] = imazamox solo 4.4 g ai/ha, 20 DAT
# [14] = imazamox solo 17.5 g ai/ha, 20 DAT
# [15] = imazamox solo 35 g ai/ha, 20 DAT
# [16] = imazamox solo 4.4 g ai/ha, 20 DAT (line of 43.8 + 4.4)
# [17] = imazamox solo 8.8 g ai/ha, 20 DAT
# [18] = imazamox solo 8.8 g ai/ha, 20 DAT (line of 50 + 8.8)
# [19] = imazamox solo 4.4 g ai/ha, 20 DAT (line of 25 + 4.4)
# [20] = imazamox solo 17.5 g ai/ha, 20 DAT (line of 100 + 17.5)
# [21] = imazamox solo 35 g ai/ha, 20 DAT (line of 200 + 35)
# [22] = herbicide A solo 62.5 g ai/ha, 20 DAT
# [23] = herbicide A solo 250 g ai/ha, 20 DAT
# [24] = herbicide A solo 43.8 g ai/ha, 20 DAT
# [25] = herbicide A solo 125 g ai/ha, 20 DAT
# [26] = herbicide A solo 50 g ai/ha, 20 DAT
# [27] = herbicide A solo 75 g ai/ha, 20 DAT
# [28] = herbicide A solo 150 g ai/ha, 20 DAT
# [29] = herbicide A solo 25 g ai/ha, 20 DAT
# [30] = herbicide A solo 37.5 g ai/ha, 20 DAT
# [31] = herbicide A solo 100 g ai/ha, 20 DAT
# [32] = herbicide A solo 200 g ai/ha, 20 DAT
# [33] = herbicide A solo 300 g ai/ha, 20 DAT
compound,measurement,setting,value
"COCc1cnc(C2=NC(C)(C(C)C)C(=O)N2)c(C(=O)O)c1 (racemic) [imazamox, 2-[(RS)-4-isopropyl-4-methyl-5-oxo-2-imidazolin-2-yl]-5-methoxymethylnicotinic acid]",herbicidal activity,Polygonum convolvulus [1]; [13],90%
same,herbicidal activity,Polygonum convolvulus [1]; [14],95%
same,herbicidal activity,"Polygonum convolvulus [1]; imazamox solo 17.5 g ai/ha, 20 DAT (line of 175 + 17.5)",95%
same,herbicidal activity,Polygonum convolvulus [1]; [15],95%
same,herbicidal activity,Sorghum halepense [2]; imazamox solo 4.4 g ai/ha,90%
same,herbicidal activity,Sorghum halepense [2]; imazamox solo 17.5 g ai/ha,95%
same,herbicidal activity,Sorghum halepense [2]; imazamox solo 35 g ai/ha,98%
same,herbicidal activity,Setaria viridis [3]; [13],95%
same,herbicidal activity,Setaria viridis [3]; [16],95%
same,herbicidal activity,Chenopodium album [4]; [13],90%
same,herbicidal activity,Chenopodium album [4]; [16],90%
same,herbicidal activity,Chenopodium album [4]; [17],95%
same,herbicidal activity,Anthemis arvensis [5]; imazamox solo 35 g ai/ha,98%
same,herbicidal activity,Avena fatua [6]; imazamox solo 4.4 g ai/ha,70%
same,herbicidal activity,Polygonum convolvulus [7]; imazamox solo 8.8 g ai/ha,25%
same,herbicidal activity,Stellaria media; [17],80%
same,herbicidal activity,Stellaria media; [18],80%
same,herbicidal activity,Stellaria media; [14],95%
same,herbicidal activity,Amaranthus retroflexus; [13],75%
same,herbicidal activity,Amaranthus retroflexus; [19],75%
same,herbicidal activity,Amaranthus retroflexus; [17],90%
same,herbicidal activity,Amaranthus retroflexus; [14],95%
same,herbicidal activity,Amaranthus retroflexus; [20],95%
same,herbicidal activity,Amaranthus retroflexus; [15],95%
same,herbicidal activity,Amaranthus retroflexus; [21],95%
same,herbicidal activity,Sorghum halepense [8]; imazamox solo 4.4 g ai/ha,10%
same,herbicidal activity,Setaria viridis [9]; [19],20%
same,herbicidal activity,"Setaria viridis [9]; imazamox solo 4.4 g ai/ha, 20 DAT (line of 62.5 + 4.4)",60%
same,herbicidal activity,Setaria viridis [9]; [17],65%
same,herbicidal activity,Chenopodium album [10]; imazamox solo 4.4 g ai/ha,0%
same,herbicidal activity,Echinochloa crus-galli; imazamox solo 4.4 g ai/ha,30%
same,herbicidal activity,Echinochloa crus-galli; imazamox solo 8.8 g ai/ha,40%
same,herbicidal activity,Anthemis arvensis [11]; [13],0%
same,herbicidal activity,Anthemis arvensis [11]; [17],0%
same,herbicidal activity,Anthemis arvensis [11]; [14],20%
same,herbicidal activity,Anthemis arvensis [11]; [15],65%
same,herbicidal activity,Anthemis arvensis [11]; [21],65%
same,herbicidal activity,Galium aparine; imazamox solo 4.4 g ai/ha,0%
same,herbicidal activity,Galium aparine; imazamox solo 35 g ai/ha,75%
same,herbicidal activity,Abutilon theophrasti; imazamox solo 17.5 g ai/ha,70%
same,herbicidal activity,Abutilon theophrasti; imazamox solo 35 g ai/ha,75%
same,herbicidal activity,Geranium dissectum; imazamox solo 8.8 g ai/ha,0%
same,herbicidal activity,Avena fatua [12]; [17],20%
same,herbicidal activity,Avena fatua [12]; [18],20%
same,herbicidal activity,Avena fatua [12]; [14],65%
same,herbicidal activity,Avena fatua [12]; [20],65%
same,herbicidal activity,Lolium multiflorum; [13],0%
same,herbicidal activity,Lolium multiflorum; [19],0%
same,herbicidal activity,Lolium multiflorum; [17],70%
(±)-2-exo-(2-Methylbenzyloxy)-1-methyl-4-isopropyl-7-oxabicyclo[2.2.1]heptane [herbicide A],herbicidal activity,Polygonum convolvulus [1]; [22],25%
same,herbicidal activity,"Polygonum convolvulus [1]; herbicide A solo 175 g ai/ha, 20 DAT",50%
same,herbicidal activity,Polygonum convolvulus [1]; [23],40%
same,herbicidal activity,"Polygonum convolvulus [1]; herbicide A solo 350 g ai/ha, 20 DAT",50%
same,herbicidal activity,Sorghum halepense [2]; herbicide A solo 62.5 g ai/ha,40%
same,herbicidal activity,Sorghum halepense [2]; herbicide A solo 175 g ai/ha,50%
same,herbicidal activity,Sorghum halepense [2]; herbicide A solo 350 g ai/ha,70%
same,herbicidal activity,Setaria viridis [3]; [24],75%
same,herbicidal activity,Setaria viridis [3]; [22],85%
same,herbicidal activity,Chenopodium album [4]; [24],60%
same,herbicidal activity,Chenopodium album [4]; [22],30%
same,herbicidal activity,Chenopodium album [4]; [25],50%
same,herbicidal activity,Anthemis arvensis [5]; herbicide A solo 500 g ai/ha,65%
same,herbicidal activity,Avena fatua [6]; herbicide A solo 43.8 g ai/ha,25%
same,herbicidal activity,Polygonum convolvulus [7]; herbicide A solo 125 g ai/ha,0%
same,herbicidal activity,Stellaria media; [26],20%
same,herbicidal activity,Stellaria media; [27],20%
same,herbicidal activity,Stellaria media; [28],30%
same,herbicidal activity,Amaranthus retroflexus; [29],0%
same,herbicidal activity,Amaranthus retroflexus; [30],0%
same,herbicidal activity,Amaranthus retroflexus; [27],0%
same,herbicidal activity,Amaranthus retroflexus; [31],0%
same,herbicidal activity,Amaranthus retroflexus; [28],0%
same,herbicidal activity,Amaranthus retroflexus; [32],0%
same,herbicidal activity,Amaranthus retroflexus; [33],0%
same,herbicidal activity,Sorghum halepense [8]; herbicide A solo 62.5 g ai/ha,80%
same,herbicidal activity,Setaria viridis [9]; [29],75%
same,herbicidal activity,Setaria viridis [9]; [22],98%
same,herbicidal activity,Setaria viridis [9]; [27],98%
same,herbicidal activity,Chenopodium album [10]; herbicide A solo 37.5 g ai/ha,20%
same,herbicidal activity,Echinochloa crus-galli; herbicide A solo 62.5 g ai/ha,98%
same,herbicidal activity,Echinochloa crus-galli; herbicide A solo 125 g ai/ha,98%
same,herbicidal activity,Anthemis arvensis [11]; [26],0%
same,herbicidal activity,Anthemis arvensis [11]; [22],0%
same,herbicidal activity,Anthemis arvensis [11]; [28],0%
same,herbicidal activity,Anthemis arvensis [11]; [32],0%
same,herbicidal activity,Anthemis arvensis [11]; [33],0%
same,herbicidal activity,Galium aparine; herbicide A solo 25 g ai/ha,0%
same,herbicidal activity,Galium aparine; herbicide A solo 200 g ai/ha,30%
same,herbicidal activity,Abutilon theophrasti; herbicide A solo 100 g ai/ha,0%
same,herbicidal activity,Abutilon theophrasti; herbicide A solo 200 g ai/ha,0%
same,herbicidal activity,Geranium dissectum; herbicide A solo 125 g ai/ha,70%
same,herbicidal activity,Avena fatua [12]; [26],0%
same,herbicidal activity,Avena fatua [12]; [27],20%
same,herbicidal activity,Avena fatua [12]; [31],20%
same,herbicidal activity,Avena fatua [12]; [23],65%
same,herbicidal activity,Lolium multiflorum; [29],50%
same,herbicidal activity,Lolium multiflorum; [30],60%
same,herbicidal activity,Lolium multiflorum; [25],90%
